Data taken from patent US20260166039A1 (SCHRÖDINGER, INC., priority 2022, published 2026).
Read-outs that look alike come from different tables or passages of the source.

Legend:
[1] = tested on: phosphorylation of Cdc2 Y15 (Wee1 substrate) in A427 cells; assay: Phosphorylated Cdc2 MSD Electrochemiluminescence Assay; assay type: cell-based; conditions: Homo sapiens
In short: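 A427 cells (RPMI 1640, 10% FBS) treated 20 h after plating with 3-fold serial compound dilutions, in duplicate, 37 °C, 5% CO2; total incubation 6 h. Lysate Cdc2 pY15 read by MSD electrochemiluminescence sandwich immunoassay; % remaining signal normalised to DMSO (high) and reference Wee1 inhibitor (low) controls.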

Wee1 kinase domain = target: T1, Wee1 kinase domain (Homo sapiens, UniProt P30291); assay: Wee1 Kinase Biochemical Assay (ADP-Glo); conditions: 15 uM ATP
T1 construct: Wee1 kinase domain was purchased from Carna (catalog #05-177); purchased Carna 05-177
In short: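 Kinase domain (1 nM) incubated 4 h at 25 °C with 15 uM ATP and 2 ng/mL Poly(Lys,Tyr 4:1) in 40 mM Tris-HCl, 20 mM MgCl2, 0.1 mg/mL BSA, 2 mM DTT. ADP formation read by ADP-Glo luminescence; percent inhibition normalized to DMSO and saturating reference-inhibitor controls.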

[2] = A-427, class symbols, read-out: A427 pCDC2 MSD IC50
[3] = class symbols, 1 nM Wee1 enzyme, 4 hours at 25° C.

T1 sequence (P30291 299-569 limits assumed): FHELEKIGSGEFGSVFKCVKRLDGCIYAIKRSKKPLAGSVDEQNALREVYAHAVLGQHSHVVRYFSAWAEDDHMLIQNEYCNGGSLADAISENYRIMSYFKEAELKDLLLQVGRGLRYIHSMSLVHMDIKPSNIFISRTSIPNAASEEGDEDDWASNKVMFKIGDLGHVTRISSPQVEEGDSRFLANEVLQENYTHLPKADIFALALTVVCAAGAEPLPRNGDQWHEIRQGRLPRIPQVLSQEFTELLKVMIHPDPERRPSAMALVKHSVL

| IC50 [1, 2] | IC50 (Wee1 kinase domain; [3]) | IC50 ([1]; A-427, pCDC2 MSD) | IC50 (Wee1 kinase domain; Wee1 kinase domain, ADP-Glo) | SMILES |
| --- | --- | --- | --- | --- |
| 0.1 to 1 µM | < 0.01 µM | – | – | CNCc1ccc(Nc2ncc3c(n2)N(c2cccc(N4C(=O)CC[C@@H]4C)n2)[C@@H]2CC(C)(C)OC[C@]32C)cc1 (single isomer, unassigned) [Example 730] |
| – | – | 0.1 to 1 µM | < 0.01 µM | C[C@H]1COC(=O)N1c1cccc(N2c3nc(Nc4ccc(O[C@@H]5CCN(C)C5)cc4)ncc3[C@@]3(C)COC(C)(C)C[C@@H]23)n1 (single isomer, unassigned) [Example 331] |
| < 0.1 µM | < 0.01 µM | – | – | CN1CCN(c2ccc(Nc3ncc4c(n3)N(c3cccc(N5CCOC5=O)n3)[C@@H]3CC(C)(C)OC[C@]43C)cc2)CC1 (single isomer, unassigned) [Example 577] |
| – | – | 1 to 10 µM | 0.01 to 0.1 µM | C[C@H]1COC(=O)N1c1cccc(N2c3nc(Nc4ccc(N5C[C@H]6C[C@@H]5CN6C)cc4)ncc3[C@]3(C)COC(C)(C)C[C@H]23)n1 (single isomer, unassigned) [Example 246] |
| < 0.1 µM | < 0.01 µM | – | – | CC1(C)C[C@H]2N(c3cccc(N4CCCC4=O)n3)c3nc(Nc4ccc(O[C@H]5CCNC5)cc4)ncc3[C@@]2(C)CO1 [Example 620, 1-(6-((4bR,8aR)-4b,7,7-trimethyl-2-((4-(((S)-pyrrolidin-3-yl)oxy)phenyl)amino)-4b,7,8,8a-tetrahydropyrano[3′,4′:4,5]pyrrolo[2,3-d]pyrimidin-9(5H)-yl)pyridin-2-yl)pyrrolidin-2-one] |
| < 0.1 µM | < 0.01 µM | – | – | CN1CC[C@H](Oc2ccc(Nc3ncc4c(n3)N(c3cccc(C(C)(C)O)n3)[C@@H]3CC(C)(C)OC[C@]43C)cc2)C1 (single isomer, unassigned) [Example 421] |
| – | – | 0.1 to 1 µM | < 0.01 µM | C[C@H]1CN(c2ccc(Nc3ncc4c(n3)N(c3cccc(N5C(=O)OC[C@@H]5C)n3)[C@@H]3CC(C)(C)OC[C@]43C)cc2)CCN1C (single isomer, unassigned) [Example 315] |
| – | – | 0.1 to 1 µM | 0.01 to 0.1 µM | C[C@H]1COC(=O)N1c1cccc(N2c3nc(Nc4ccc([C@@H]5CCN(C)C5)nc4)ncc3[C@]3(C)COC(C)(C)C[C@H]23)n1 (single isomer, unassigned) [Example 264] |
| < 0.1 µM | < 0.01 µM | – | – | CC1(C)C[C@@H]2N(c3cccc(C(C)(C)O)n3)c3nc(Nc4ccc(O[C@@H]5CCNC5)cc4)ncc3[C@]2(C)CO1 (single isomer, unassigned) [Example 417] |

The remaining lines, values behind:

| SMILES | IC50 [1, 2] | IC50 (Wee1 kinase domain; [3]) | IC50 ([1]; A-427, pCDC2 MSD) | IC50 (Wee1 kinase domain; Wee1 kinase domain, ADP-Glo) |
| --- | --- | --- | --- | --- |
| CN1C[C@H]2C[C@@H]1CN2c1ccc(Nc2ncc3c(n2)N(c2cccc(N4CCOC4=O)n2)[C@@H]2CC(C)(C)OC[C@]32C)cc1F [Example 668, 3-(6-((4bR,8aR)-2-((3-fluoro-4-((1R,4R)-5-methyl-2,5-diazabicyclo[2.2.1]heptan-2-yl)phenyl)amino)-4b,7,7-trimethyl-4b,7,8,8a-tetrahydropyrano[3′,4′:4,5]pyrrolo[2,3-d]pyrimidin-9(5H)-yl)pyridin-2-yl)oxazolidin-2-one] | 0.1 to 1 µM | < 0.01 µM | – | – |
| CC1(C)C[C@H]2N(c3cccc(N=S(C)(C)=O)n3)c3nc(NC(=O)OC4CCOCC4)ncc3[C@@]2(C)CO1 (single isomer, unassigned) [Example 772] | 0.1 to 1 µM | < 0.01 µM | – | – |
| Cn1cc([C@@H]2C[C@H]2C(=O)Nc2ncc3c(n2)N(c2cccc(N=S(C)(C)=O)n2)[C@@H]2CC(C)(C)OC[C@]32C)cn1 (single isomer, unassigned) [Example 403] | 0.1 to 1 µM | < 0.01 µM | – | – |
| CC1(C)C[C@H]2N(c3cccc(N=S(C)(C)=O)n3)c3nc(Nc4ccc(C(F)F)nn4)ncc3[C@@]2(C)CO1 (single isomer, unassigned) [Example 377] | – | – | 1 to 10 µM | < 0.01 µM |
| CNCc1cccc(N2c3nc(Nc4ccc(N5CCCCC5)cc4)ncc3[C@@]3(C)COC(C)(C)C[C@@H]23)n1 (single isomer, unassigned) [Example 2] | – | – | 0.1 to 1 µM | < 0.01 µM |
| CN[C@@H](C)c1cccc(N2c3nc(Nc4ccc(N5CCOCC5)cc4)ncc3[C@@]3(C)COC(C)(C)C[C@@H]23)n1 (single isomer, unassigned) [Example 537] | 0.1 to 1 µM | < 0.01 µM | – | – |
| CNCc1cccc(N2c3nc(Nc4ccc(C(=O)N5CCOCC5)cc4)ncc3[C@@]3(C)COC(C)(C)C[C@@H]23)n1 (single isomer, unassigned) [Example 24] | – | – | 0.1 to 1 µM | < 0.01 µM |
| CNCc1cccc(N2c3nc(Nc4ccc(N5CCOCC5)c(C)c4)ncc3[C@@]3(C)COC(C)(C)C[C@@H]23)n1 (single isomer, unassigned) [Example 26] | – | – | 0.1 to 1 µM | < 0.01 µM |
| CN1C[C@H]2C[C@@H]1CN2c1ccc(Nc2ncc3c(n2)N(c2cccc(N4CCCC4=O)n2)[C@@H]2CC(C)(C)OC[C@]32C)cc1F [Example 638, 1-(6-((4bR,8aR)-2-((3-fluoro-4-((1R,4R)-5-methyl-2,5-diazabicyclo[2.2.1]heptan-2-yl)phenyl)amino)-4b,7,7-trimethyl-4b,7,8,8a-tetrahydropyrano[3′,4′:4,5]pyrrolo[2,3-d]pyrimidin-9(5H)-yl)pyridin-2-yl)pyrrolidin-2-one] | 0.1 to 1 µM | < 0.01 µM | – | – |
| CN1CC[C@](C)(c2ccc(Nc3ncc4c(n3)N(c3cccc(N=S(C)(C)=O)n3)[C@@H]3CC(C)(C)OC[C@]43C)cc2)C1 (single isomer, unassigned) [Example 168] | – | – | < 0.1 µM | < 0.01 µM |
| CN1Cc2cc(Nc3ncc4c(n3)N(c3cccc(N=S(C)(C)=O)n3)[C@@H]3CC(C)(C)OC[C@]43C)ccc2C(C)(C)C1 (single isomer, unassigned) [Example 135] | – | – | < 0.1 µM | < 0.01 µM |
| CN[C@@H](C)c1cccc(N2c3nc(Nc4ccc(N5C[C@H]6C[C@@H]5CO6)cc4)ncc3[C@]3(C)COC(C)(C)C[C@H]23)n1 (single isomer, unassigned) [Example 579] | 0.1 to 1 µM | < 0.01 µM | – | – |
| CN1CCC(n2ccc(Nc3ncc4c(n3)N(c3cccc(C(C)(C)O)n3)[C@@H]3CC(C)(C)OC[C@]43C)cc2=O)CC1 (single isomer, unassigned) [Example 810] | 0.1 to 1 µM | < 0.01 µM | – | – |
| CNCc1cccc(N2c3nc(Nc4ccc5c(c4)C(=O)N(C)CC5(C)C)ncc3[C@@]3(C)COC(C)(C)C[C@@H]23)n1 (single isomer, unassigned) [Example 92] | – | – | 0.1 to 1 µM | < 0.01 µM |
| CC1(C)C[C@H]2N(c3cccc(N4CCCC4=O)n3)c3nc(Nc4ccc([C@@H]5CCNC5)cc4)ncc3[C@@]2(C)CO1 [Example 632, 1-(6-((4bR,8aR)-4b,7,7-trimethyl-2-((4-((S)-pyrrolidin-3-yl)phenyl)amino)-4b,7,8,8a-tetrahydropyrano[3′,4′:4,5]pyrrolo[2,3-d]pyrimidin-9(5H)-yl)pyridin-2-yl)pyrrolidin-2-one] | 0.1 to 1 µM | < 0.01 µM | – | – |
| CNCc1cccc(N2c3nc(Nc4ccc(C(C)(C)C(=O)N(C)C)cc4)ncc3[C@@]3(C)COC(C)(C)C[C@@H]23)n1 (single isomer, unassigned) [Example 76] | – | – | 0.1 to 1 µM | < 0.01 µM |
| CC1(C)C[C@H]2N(c3cccc(N=S(C)(C)=O)n3)c3nc(Nc4ccc(N5CCOCC5)nc4)ncc3[C@@]2(C)CO1 (single isomer, unassigned) [Example 493] | 0.1 to 1 µM | < 0.01 µM | – | – |
| CN1CCC(c2cc(Nc3ncc4c(n3)N(c3cccc(N=S(C)(C)=O)n3)[C@@H]3CC(C)(C)OC[C@]43C)on2)CC1 (single isomer, unassigned) [Example 204] | – | – | 0.1 to 1 µM | < 0.01 µM |
